Reference: patent US8822433B2, “Complex combining an organic silicon derivative with hyaluronic and acid calibrated fragments, for preventive and repairing action of cutaneous damages” (Exsymol S.A.M., priority 2008, dated 2014)

What was measured:
[1] = system: reconstructed human epidermis model (RHE) keratinocytes; experiment: Ki67 immunotracking of cell proliferation on reconstructed human epidermis (tests 1 and 4); format: cell-based; conditions: for % cells expressing Ki67/number of total cells (% in relation to the control): vs PBS control
Procedure: (§1) As purely an indication, the invention is hereafter illustrated by the following tests above described in the specification (tests 1 to 3), and a comparative study (test 4). In tests 1, 2 and 4, the experimental studies have been carried out on a reconstructed human epidermis model (RHE, supplier: SkinEthic®) whose interest is a strong homology with human epidermis.
(§2) The culture of RHE consisted in placing them in a “MCDB 153” growth medium (supplier : SkinEthic®) containing […] of insulin, 1.5 mM of CaCl2 and […] of gentamycine, for 24 hours at 37° C. and 5% CO2.
The observation of cellular proliferation is achieved with the immunotracking technique (Gerdes and al., Int. J. Cancer (1983), vol. 31, pp. 13-20) by using the “Ki67” cell proliferation tracer, for the three following configurations (after a 100 1 twice-daily deposit on RHE): • case 1: PBS buffer solution (control) • case 2: HA fragments 150-600 kDa (concentrations 2 and 5%) • case 3: MSH complex (concentrations 2 and 5%)
Identically to the here-above test 1, keratinocytes' cellular proliferation is observed on reconstructed human epidermis RHE (with the immunotracking technique) for: • the MSH complex according to the invention (based on 150-600 kDa HA fragments) • the dimethylsilanediol hyaluronate marketed by the applicant under the “D.S.H. CN®” brand mark. • D.S.H. CN® is an organo-silicon product resulting from the combination of dimethylsilanediol with hyaluronic acid of high molecular weight (1500 to 2200 kDa HA fragments).

bovine hyaluronidases = experiment: Deterioration kinetic with hyaluronidases, agarose gel electrophoresis (test 3); format: in vitro ADME; conditions: 5, 15 and 30 min reaction at 37° C.; compared to fragmented HA non combined
Procedure: The experimental study consisted in measuring the deterioration kinetic of the MSH complex according to the invention submitted in vitro to bovine hyaluronidases, by electrophoresis on agarose gel. 10 1 of 1 mg/ml hyaluronidases are mixed to 50 1 of complex in a PBS buffer solution during 30 minutes at 37° C.
Successively at 5, 15 and 30 minutes, 10 1 of reaction mixture are taken, then heated at 95° C. in order to stop the enzymatic reaction. These 10 1 are then deposited on an agarose gel and a suitable stain (Stains all®) is used for the electrophoresis disclosure.

IL8 = experiment: ELISA dosage of pro-inflammatory interleukin IL8 in RHE culture supernatant (test 2); format: cell-based, human; conditions: for IL8 quantity: RHE supernatant after 24 hours of treatment
Procedure: as §1, §2
(§3) The culture of RHE is identical to the one of the herebefore test 1. The dosage of the IL1 and IL8 pro-inflammatory interleukines is achieved on a supernatant resulting from culture medium after 24 hours of treatment, with the help of ELISA dosage kits (R&D System Quantikine Immunoassay, D800C, DTA00C and DLA50), and for identical configurations to those of the above test 1.

IL1α = experiment: ELISA dosage of pro-inflammatory interleukin IL1 in RHE culture supernatant (test 2); format: cell-based, human; conditions: for IL1α quantity: RHE supernatant after 24 hours of treatment
Procedure: as §1, §2, §3

monomethylsilanetriol combined with one or several hyaluronic acid fragments of molecular weight between 150 and 600 kDa [MSH complex]
cytostimulation ([1]; compared to non combined fragmented HA): potentiated cytostimulation | % cells expressing Ki67/number of total cells (% in relation to the control) ([1]; concentration 2.5%, twice-daily deposit, three independent experiments): +14 (±1.0) % | % cells expressing Ki67/number of total cells (% in relation to the control) ([1]; concentration 5%, twice-daily deposit, three independent experiments): +63 (±0.5) % | % cells expressing Ki67/number of total cells (% in relation to the control) ([1]; test 4 (Table 4), concentration 5%): +69.5 (±3.1) % | distribution of HA with a high molecular weight after hyaluronidase treatment (bovine hyaluronidases): more important distribution of HA with a high molecular weight | IL8 quantity (IL8; concentration 2.5%): 20.1 (±7.2) pg/ml | IL8 quantity (IL8; concentration 5%): 34.8 (±13.7) pg/ml | IL8 type-interleukines' rate (IL8; in relation to the control and to the non combined HA fragment): reduction | induction of pro-inflammatory cytokines (IL1α; RHE, 24 hours, compared with control, IL1 and IL8): No significant induction | IL1α quantity (IL1α; concentration 2.5%): 3.5 (±1.8) pg/ml | IL1α quantity (IL1α; concentration 5%): 3.4 (±0.8) pg/ml
